Results: article PMC9516332 (Frontiers in Oncology, 2022)
Like-named read-outs stand apart in the source and are kept apart here.

Tested on: 134 cancer cell lines
Assay: Cell viability assay (ATPlite, 72 hours), IC50 on cancer cell line panel

## CCCS(=O)(=O)Nc1ccc(F)c(C(=O)c2c[nH]c3ncc(-c4ccc(Cl)cc4)cc23)c1F [vemurafenib]
Homo sapiens, MOLM-13, read-out: IC50 in cell proliferation assay, MOLM-13 cell line (FLT3 ITD)
  IC50: 8.9 µM
Homo sapiens, MOLT-4, read-out: IC50 in cell proliferation assay, MOLT-4 cell line
  IC50: 30.6 µM
Homo sapiens, MV4-11, read-out: IC50 in cell proliferation assay, MV4-11 cell line (FLT3 ITD)
  IC50: 31.2 µM
Homo sapiens, MeWo, read-out: IC50 in cell proliferation assay, MeWo cell line
  IC50: > 31.6 µM
Homo sapiens, NCCIT, read-out: IC50 in cell proliferation assay, NCC-IT cell line
  IC50: 25.5 µM
Homo sapiens, NCI-H82, read-out: IC50 in cell proliferation assay, cell line NCI-H82
  IC50: 22.8 µM
Homo sapiens, NCI-H460, read-out: IC50 in cell proliferation assay, NCI-H460 cell line
  IC50: 26.9 µM
Homo sapiens, NCI-H661, read-out: IC50 in cell proliferation assay, NCI-H661 cell line
  IC50: > 31.6 µM
Homo sapiens, NCI-H716, read-out: IC50 in cell proliferation assay, cell line NCI-H716 (FGFR2-COL14A1)
  IC50: > 31.6 µM
Homo sapiens, NCI-H1650, read-out: IC50 in cell proliferation assay, NCI-H1650 cell line (EGFR exon19del)
  IC50: > 31.6 µM
Homo sapiens, NCI-H1975, read-out: IC50 in cell proliferation assay, NCI-H1975 cell line (EGFR p.L858R + p.T790M)
  IC50: > 31.6 µM
Homo sapiens, NCI-H2228, read-out: IC50 in cell proliferation assay, NCI-H2228 cell line (EML4-ALK)
  IC50: > 31.6 µM
Homo sapiens, OVCAR-3, read-out: IC50 in cell proliferation assay, cell line OVCAR-3
  IC50: > 31.6 µM
Homo sapiens, PFSK-1, read-out: IC50 in cell proliferation assay, cell line PFSK-1
  IC50: > 31.6 µM
Homo sapiens, RL95-2, read-out: IC50 in cell proliferation assay, cell line RL95-2 (EGFR p.A289V)
  IC50: > 31.6 µM
Homo sapiens, RPMI-7951, read-out: IC50 in cell proliferation assay, cell line RPMI-7951 (BRAF p.V600E)
  IC50: 15.7 µM
Homo sapiens, RS4-11, read-out: IC50 in cell proliferation assay, cell line RS4;11
  IC50: > 31.6 µM
Homo sapiens, Rec1, read-out: IC50 in cell proliferation assay, cell line REC-1
  IC50: 8.15 µM
Homo sapiens, SHP77, read-out: IC50 in cell proliferation assay, cell line SHP-77
  IC50: > 31.6 µM
Homo sapiens, SK-BR-3, read-out: IC50 in cell proliferation assay, cell line SK-BR-3 (ERBB2 amplification)
  IC50: > 31.6 µM
Homo sapiens, SK-N-AS, read-out: IC50 in cell proliferation assay, cell line SK-N-AS
  IC50: > 31.6 µM
Homo sapiens, SK-N-FI, read-out: IC50 in cell proliferation assay, cell line SK-N-FI
  IC50: > 31.6 µM
Homo sapiens, SK-N-MC, read-out: IC50 in cell proliferation assay, cell line SK-N-MC
  IC50: > 31.6 µM
Homo sapiens, SK-N-SH, read-out: IC50 in cell proliferation assay, cell line SK-N-SH (ALK p.F1174L)
  IC50: > 31.6 µM
Homo sapiens, SNU-5, read-out: IC50 in cell proliferation assay, cell line SNU-5 (MET amplification)
  IC50: 31.4 µM
Homo sapiens, SNU-16, read-out: IC50 in cell proliferation assay, cell line SNU-16 (FGFR2 amplification)
  IC50: > 31.6 µM
Homo sapiens, SNU-C2B, read-out: IC50 in cell proliferation assay, cell line SNU-C2B (EGFR p.R165Q)
  IC50: > 31.6 µM
Homo sapiens, SU-DHL-1, read-out: IC50 in cell proliferation assay, cell line SU-DHL-1 (NPM1-ALK)
  IC50: 23.5 µM
Homo sapiens, SU-DHL-6, read-out: IC50 in cell proliferation assay, cell line SU-DHL-6
  IC50: > 31.6 µM
Homo sapiens, SUP-T1, read-out: IC50 in cell proliferation assay, cell line SUP-T1
  IC50: > 31.6 µM
Homo sapiens, SW48, read-out: IC50 in cell proliferation assay, cell line SW48 (EGFR p.G719S)
  IC50: > 31.6 µM
Homo sapiens, SW480, read-out: IC50 in cell proliferation assay, cell line SW480
  IC50: > 31.6 µM
Homo sapiens, SW626, read-out: IC50 in cell proliferation assay, cell line SW626
  IC50: > 31.6 µM
Homo sapiens, SW780, read-out: IC50 in cell proliferation assay, cell line SW780 (FGFR3-BAIAP2L1)
  IC50: > 31.6 µM
Homo sapiens, SW837, read-out: IC50 in cell proliferation assay, cell line SW837
  IC50: > 31.6 µM
Homo sapiens, SW872, read-out: IC50 in cell proliferation assay, cell line SW872 (BRAF p.V600E)
  IC50: 1.15 µM
Homo sapiens, SW900, read-out: IC50 in cell proliferation assay, cell line SW900
  IC50: 26.7 µM
Homo sapiens, SW948, read-out: IC50 in cell proliferation assay, cell line SW948
  IC50: > 31.6 µM
Homo sapiens, SW982, read-out: IC50 in cell proliferation assay, cell line SW982 (BRAF p.V600E)
  IC50: 22.3 µM
Homo sapiens, SW-620, read-out: IC50 in cell proliferation assay, cell line SW620
  IC50: > 31.6 µM
Homo sapiens, T98G, read-out: IC50 in cell proliferation assay, cell line T98G
  IC50: 19.1 µM
Homo sapiens, TCC-SUP, read-out: IC50 in cell proliferation assay, cell line TCCSUP
  IC50: > 31.6 µM
Homo sapiens, THP-1, read-out: IC50 in cell proliferation assay, cell line THP-1
  IC50: > 31.6 µM
Homo sapiens, U2OS, read-out: IC50 in cell proliferation assay, cell line U2OS
  IC50: > 31.6 µM
Homo sapiens, U-87 MG, read-out: IC50 in cell proliferation assay, cell line U-87MG ATCC
  IC50: > 31.6 µM
Homo sapiens, U-118-MG, read-out: IC50 in cell proliferation assay, cell line U-118MG
  IC50: > 31.6 µM
Homo sapiens, UMUC3, read-out: IC50 in cell proliferation assay, cell line UM-UC-3
  IC50: > 31.6 µM
Hs766T, read-out: IC50 in cell proliferation assay, Hs 766T cell line
  IC50: > 31.6 µM
L-82, read-out: IC50 in cell proliferation assay, L-82 cell line (NPM1-ALK)
  IC50: 26.8 µM
Rh30, read-out: IC50 in cell proliferation assay, cell line Rh30
  IC50: > 31.6 µM
read-out: IC50 in cell proliferation assay, 11-18 cell line (EGFR p.L858R)
  IC50: > 31.6 µM
read-out: IC50 in cell proliferation assay, Hs 852.T cell line
  IC50: > 31.6 µM
read-out: IC50 in cell proliferation assay, JAR cell line
  IC50: 14.7 µM
read-out: IC50 in cell proliferation assay, cell line 5637
  IC50: 25.1 µM
read-out: IC50 in cell proliferation assay, cell line A-388
  IC50: > 31.6 µM
read-out: IC50 in cell proliferation assay, cell line DB
  IC50: 24.5 µM
read-out: IC50 in cell proliferation assay, cell line DEL (NPM1-ALK)
  IC50: > 31.6 µM
read-out: IC50 in cell proliferation assay, cell line ES-2 (BRAF p.V600E)
  IC50: 2.33 µM
read-out: IC50 in cell proliferation assay, cell line PA-1
  IC50: 15.7 µM
read-out: IC50 in cell proliferation assay, cell line PC-3
  IC50: > 31.6 µM
read-out: IC50 in cell proliferation assay, cell line RD
  IC50: > 31.6 µM
read-out: IC50 in cell proliferation assay, cell line RKO (BRAF p.V600E)
  IC50: 3.08 µM
read-out: IC50 in cell proliferation assay, cell line RL
  IC50: 24.8 µM
read-out: IC50 in cell proliferation assay, cell line RT-4 (FGFR3-TACC3)
  IC50: > 31.6 µM
read-out: IC50 in cell proliferation assay, cell line T24
  IC50: 30.7 µM
read-out: IC50 in cell proliferation assay, cell line TT (RET p.C634W)
  IC50: > 31.6 µM
read-out: IC50 in cell proliferation assay, cell line VA-ES-BJ
  IC50: > 31.6 µM
